Data on 21 molecules can be found in ChEMBL document CHEMBL4725334, “Discovery of novel integrase-LEDGF/p75 allosteric inhibitors based on a benzene scaffold” (Bioorg Med Chem, 2020).

The nature of series [1]: Cytotoxicity against human MT4 cells assessed as reduction in cell viability measured after 4 days by MTT assay. As to conditions: time 4 day. Format: cell-based.
Series [2] is described as follows: Binding affinity to LEDGF/p75 binding pocket of integrase in HIV-1 NL432 infected in human MT4 cells assessed as allosteric inhibition of IN-LEDGF/p75 interaction by measuring inhibition of virus-induced cytopathicity measured after 4 days by MTT assay. Format: cell-based. The note with it: Human immunodeficiency virus 1, NL432, MT4, 96 h. For orientation: Protection from cytopathic effect is a common read-out in antiviral testing.

Series [3] in a line: Metabolic stability in human liver microsomes assessed as parent compound remaining at 0.5 uM incubated for 30 mins by LC-MS/MS analysis. It counts as ADME, Microsome. The note with it: read-out: Stabilty. For orientation: Microsomes from liver hold many membrane-bound enzymes, among them those of drug oxidation.
Series [4] in a line: Oral bioavailability in Sprague-Dawley rat 1 mg/kg administered as cassette dosing measured for 24 hrs by LC-MS/MS analysis. Format: ADME, organism-based. The note with it: in vivo.
A short description of series [5]: Half-life in Sprague-Dawley rat at 0.5 mg/kg, iv and 1 mg/kg, po administered as cassette dosing measured for 24 hrs by LC-MS/MS analysis. Format: ADME, organism-based. As to conditions: in vivo.
Series [6] in a line: AUC in Sprague-Dawley rat at 0.5 mg/kg, iv measured for 24 hrs by LC-MS/MS analysis. More on the design: dose 0.5 mg/kg, time 24 hrs. As to conditions: in vivo. It counts as ADME, organism-based.
A short description of series [7]: Total clearance in Sprague-Dawley rat at 0.5 mg/kg, iv and 1 mg/kg, po administered as cassette dosing measured for 24 hrs by LC-MS/MS analysis. Format: ADME, organism-based. As to conditions: in vivo.
Series [8] in a line: Metabolic stability in rat liver microsomes assessed as parent compound remaining at 0.5 uM incubated for 30 mins by LC-MS/MS analysi. Format: ADME, Microsome. The note with it: read-out: Stabilty.

By CC50 is commonly meant the concentration giving 50% cytotoxicity. What is called EC50 is the concentration at which the effect is half-maximal. A word on the bioavailability: it is the share of a dose that reaches the circulation, judged against a reference dose that is usually intravenous. A high value points to much systemic uptake. The half-life is how long it takes for the measured level to halve. A higher half-life goes with slow loss. In general, AUC refers to concentration integrated over time. A lower AUC goes with less exposure.

For the molecule `CNc1c(C)c(C(OC(C)(C)C)C(=O)O)c(-c2ccc(C)c(C)c2)c(C)c1-c1ccc(C)c(C)c1` (centres undefined), in series [1], the CC50 at 96 h turned out to be 8800 nM. Besides, the EC50 in series [2] is 31 nM.

As for `Cc1ccc(-c2c(C)c(-c3ccc(Cl)cc3)c(C(OC(C)(C)C)C(=O)O)c(C)c2NS(C)(=O)=O)cc1C` (centres undefined), the cytotoxic concentration (CC50) at 96 h in series [1] was 26000 nM. Further, the half-maximal effective concentration (EC50) in series [2] is 11 nM.

Consider `Cc1ccc(-c2c(C)c(-c3ccc4c(c3C)CCCO4)c(C(OC(C)(C)C)C(=O)O)c(C)c2NS(C)(=O)=O)cc1C` (centres undefined), for which the remaining at 0.5 h, 0.5 µM in series [3] came out at 59%; in series [8], 61%. Besides, the CC50 at 96 h in series [1] was 24000 nM. Besides, in series [4], the bioavailability amounted to 36%. Further, in series [2], the half-maximal effective concentration (EC50) came out at 3.9 nM. In series [5], this molecule had a half-life of 3.1 h. Besides, in series [6], the AUC at 24 h came out at 1190 ng·h/mL. For the same molecule, in series [7], the clearance stood at 6.99 mL/min/kg.

For `Cc1ccc(-c2c(C)c(-c3ccc4c(c3)N(C)CCO4)c(C(OC(C)(C)C)C(=O)O)c(C)c2NS(C)(=O)=O)cc1C` (centres undefined), in series [1], the cytotoxic concentration (CC50) at 96 h amounted to 31000 nM. For the same molecule, in series [2], the 50% effective concentration (EC50) was 31 nM.

In the case of `Cc1ccc(-c2c(C)c(-c3ccc4c(c3)CCCO4)c(C(OC(C)(C)C)C(=O)O)c(C)c2NS(C)(=O)=O)cc1C` (centres undefined), the CC50 at 96 h in series [1] worked out at 28000 nM. For the same molecule, in series [2], the 50% effective concentration (EC50) is 22 nM.

Regarding `Cc1ccc(-c2c(C)c(-c3ccc(C)c(C)c3)c(C(OC(C)(C)C)C(=O)O)c(C)c2NCc2ccccc2)cc1C` (centres undefined), the CC50 at 96 h in series [1] was found to be 4000 nM. The concentration giving a half-maximal response (EC50) in series [2] stood at 480 nM.

Turning to `Cc1ccc(-c2c(C)c(-c3ccc(C)c(C)c3)c(C(OC(C)(C)C)C(=O)O)c(C)c2NS(C)(=O)=O)cc1C` (centres undefined), in series [1], the half-maximal cytotoxic concentration (CC50) at 96 h was determined as 15000 nM. The EC50 in series [2] worked out at 11 nM.

In the case of `CC(=O)Nc1c(C)c(C(OC(C)(C)C)C(=O)O)c(-c2ccc(C)c(C)c2)c(C)c1-c1ccc(C)c(C)c1` (centres undefined), the half-maximal cytotoxic concentration (CC50) at 96 h in series [1] came out at 19000 nM. For the same molecule, the half-maximal effective concentration (EC50) in series [2] turned out to be 19 nM.

For the molecule `Cc1ccc(-c2c(C)c(-c3ccc(C)c(C)c3)c(C(OC(C)(C)C)C(=O)O)c(C)c2NC(=O)c2ccccc2)cc1C` (centres undefined), the CC50 at 96 h in series [1] came out at 9100 nM. For the same molecule, in series [2], the half-maximal effective concentration (EC50) is 51 nM.

In the case of `Cc1ccc(-c2c(C)c(-c3ccc4c(c3)CCO4)c(C(OC(C)(C)C)C(=O)O)c(C)c2NS(C)(=O)=O)cc1C` (centres undefined), the CC50 at 96 h in series [1] worked out at 38000 nM. Further, the EC50 in series [2] turned out to be 35 nM.

For `Cc1ccc(-c2c(C)c(-c3ccc(C)c(C)c3)c(C(OC(C)(C)C)C(=O)O)c(C)c2N)cc1C` (centres undefined), in series [1], the cytotoxic concentration (CC50) at 96 h worked out at 12000 nM. In series [2], the EC50 stood at 27 nM.

Regarding `Cc1ccc(-c2c(C)c(-c3ccc(Cl)c(F)c3)c(C(OC(C)(C)C)C(=O)O)c(C)c2NS(C)(=O)=O)cc1C` (centres undefined), the 50% cytotoxic concentration (CC50) at 96 h in series [1] was 22000 nM. Moreover, the EC50 in series [2] came to 26 nM.

Consider `Cc1ccc(-c2c(C)c(-c3ccc(C)c(C)c3)c(C(OC(C)(C)C)C(=O)O)c(C)c2NC(=O)Nc2ccccc2)cc1C` (centres undefined), for which, in series [1], the CC50 at 96 h stood at 8000 nM. Moreover, the EC50 in series [2] came out at 29 nM.

For `Cc1ccc(-c2c(C)c(-c3ccc(C)c(C)c3)c(C(OC(C)(C)C)C(=O)O)c(C)c2NS(=O)(=O)C2CC2)cc1C` (centres undefined), in series [1], the CC50 at 96 h came to 11000 nM. The EC50 in series [2] worked out at 29 nM.

Turning to `CNC(=O)Nc1c(C)c(C(OC(C)(C)C)C(=O)O)c(-c2ccc(C)c(C)c2)c(C)c1-c1ccc(C)c(C)c1` (centres undefined), the CC50 at 96 h in series [1] amounted to 20000 nM. For the same molecule, in series [2], the concentration giving a half-maximal response (EC50) came to 77 nM.

In the case of `CCNC(=O)Nc1c(C)c(C(OC(C)(C)C)C(=O)O)c(-c2ccc(C)c(C)c2)c(C)c1-c1ccc(C)c(C)c1` (centres undefined), the 50% cytotoxic concentration (CC50) at 96 h in series [1] was determined as 15000 nM. In addition, in series [2], the EC50 stood at 37 nM.

`Cc1ccc(-c2c(C)c(-c3ccccc3)c(C(OC(C)(C)C)C(=O)O)c(C)c2NS(C)(=O)=O)cc1C` (centres undefined): the CC50 at 96 h in series [1] was greater than 50000 nM. In series [2], the 50% effective concentration (EC50) was 34 nM.

For the molecule `Cc1nc2ccccc2c(-c2ccc3c4c(ccnc24)CCO3)c1[C@H](OC(C)(C)C)C(=O)O` [BI-224436], the remaining at 0.5 h, 0.5 µM is 98% in series [3] and 100% in series [8]. Besides, the CC50 at 96 h in series [1] was greater than 50000 nM. Moreover, the bioavailability in series [4] was 64%. The EC50 in series [2] came out at 56 nM. In addition, in series [5], the half-life is 4.2 h. The same molecule had an AUC at 24 h in series [6] of 7680 ng·h/mL. Besides, the clearance in series [7] was 1.09 mL/min/kg.

Take `CCC(=O)Nc1c(C)c(C(OC(C)(C)C)C(=O)O)c(-c2ccc(C)c(C)c2)c(C)c1-c1ccc(C)c(C)c1` (centres undefined): the CC50 at 96 h in series [1] was 15000 nM. Further, in series [2], the EC50 was 19 nM.

In the case of `Cc1ccc(-c2c(C)c(-c3ccc(C)c(C)c3)c(C(OC(C)(C)C)C(=O)O)c(C)c2NS(=O)(=O)c2ccccc2)cc1C` (centres undefined), the cytotoxic concentration (CC50) at 96 h in series [1] came to 11000 nM. In addition, the EC50 in series [2] came to 33 nM.

On to `Cc1ccc(-c2c(C)c(-c3ccc4c(c3)NCCO4)c(C(OC(C)(C)C)C(=O)O)c(C)c2NS(C)(=O)=O)cc1C` (centres undefined), for which the half-maximal cytotoxic concentration (CC50) at 96 h in series [1] came to 42000 nM. Also, in series [2], the EC50 came to 330 nM.
